Laboratory results taken from US12698523B2, “Enhancement of nucleic acid polymerization by aromatic compounds” (priority 2019, dated 2026).

Key:
DNA polymerase [1] = experiment: Screen of PEMs for enhancement of XNTP polymerization (primer extension reaction, gel electrophoresis); assay type: biochemical; conditions: FIG. 4 gel; no PEM additive: up to only around 14 XNTPs
From the text: The Sequencing by Expansion (SBX) methodology developed by the inventors provides significant performance enhancements in sequence read efficiency and accuracy of Xpandomers relative to native DNA. However, initial transcription of the sequence of the natural DNA template onto the measurable Xpandomer relies on the ability of DNA polymerase to utilize XNTPs as substrates (the generalized structure of an XNTP is discussed herein with reference to FIG. 1A and FIG. 2). […] In an effort to improve the efficiency and accuracy of XNTP polymerization into Xpandomers, several PEMs were screened for the ability to enhance DNA polymerase primer extension reactions using XNTPs as substrates.
A representative primer extension reaction may include the following reagents: 2 pmol primer, 2.2 pmol 45mer oligonucleotide template, 50 pmol of each XNTP (XATP, XCTP, XGTP, and XTTP), 50 Mm Tris HCl, Ph 6.79, 200 Mm NaCl, 20% PEG, 5% NMS, 0.5 nmol polyphosphate 60.19, 0.3 Mm MnCl2, and 0.6 μg of purified recombinant DNA polymerase protein. Reactions may be run for 1 hr at 23° C. Reaction products (i.e., constrained Xpandomers) are treated to cleave the phosphoramidate bonds, thereby generating linearized Xpandomers. Reaction products may be analyzed using gel electrophoresis on 4-12% acrylamide gels to resolve and visualize Xpandomer products of different lengths. For the PEM screen described above, PEMs were typically tested in the micro to millimolar range.
Again, this PEM activity is specific for compound 2, as other unrelated aromatic compounds had no effect (lanes 2-7).

DNA polymerase [2] = experiment: Sequencing by Expansion (SBX) of primer extension products, nanopore reads aligned to template; assay type: biochemical
From the text: To investigate the accuracy of PEM-dependent enhancement of XNTP polymerization, primer extension products were sequenced using the SBX protocol. Briefly, the constrained Xpandomer products of XNTP polymerization are cleaved to generate linearized Xpandomers. This is accomplished by first quenching the extension reaction with a solution containing 100 Mm EDTA, 2 Mm THPTA, and 2% Tween-20. Then the sample is subjected to amine modification with a solution of 1 M NaHCO3 and 1 M succinic anhydride in DMF. Cleavage of the phosphoramidate bonds is carried out with 37% HCl and linearized Xpandomers are purified with QIAquick columns (QIAGEN, Inc.).
For sequencing, protein nanopores are prepared by inserting a-hemolysin into a DphPE/hexadecane bilayer member in buffer B1, containing 2 M NH4Cl and 100 Mm HEPES, Ph 7.4. The cis well is perfused with buffer B2, containing 0.4 M NH4Cl, 0.6 M GuCl, and 100 Mm HEPES, Ph 7.4. The Xpandomer sample is heated to 70° C. for 2 minutes, cooled completely, then a 2 μL sample is added to the cis well. A voltage pulse of 90 Mv/390 Mv/10 μs is then applied and data is acquired via Labview acquisition software.
Sequence data is analyzed by histogram display of the population of sequence reads from a single SBX reaction. […]

[3] = target: T1, C4552 (variant of DPO4 DNA polymerase, SEQ ID NO:1) (Saccharolobus solfataricus, UniProt Q97W02, A155G/A42V/D156R/D292Y/D294N/E291S/E324K/E325K/E327K/E79L/G187P/G299W/I153V/I189F/I248T/I295S/K152A/K317Q/K321Q/K56Y/K78D/L293W/M76W/N188Y/P184Q/Q82W/Q83G/R300S/S297Y/S86E/T290K/T301W/V289W/V296Q); experiment: XNTP polymerization on longer templates (88, 127, 227, 277 nucleotides); assay type: biochemical, Sulfolobus solfataricus; conditions: 1 Mm compound; templates of 88, 127, 227, 277 nucleotides; 1-2 hr at 23° C.; FIG. 8
T1 construct: made in house
T1 sequence (Q97W02 other isoform, or with tags, fused parts or gaps with the stated changes): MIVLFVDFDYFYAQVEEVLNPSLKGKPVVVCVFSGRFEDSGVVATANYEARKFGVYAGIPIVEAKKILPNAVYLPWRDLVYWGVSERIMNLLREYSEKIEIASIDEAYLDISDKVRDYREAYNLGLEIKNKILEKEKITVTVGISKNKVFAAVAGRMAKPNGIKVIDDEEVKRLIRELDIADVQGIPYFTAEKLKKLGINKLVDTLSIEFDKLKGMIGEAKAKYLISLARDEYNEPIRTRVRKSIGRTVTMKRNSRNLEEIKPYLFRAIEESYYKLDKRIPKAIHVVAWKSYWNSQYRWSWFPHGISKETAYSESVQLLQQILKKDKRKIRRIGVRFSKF
Procedure: Following the success of accurately replicating templates of up to 80 nucleotides in length into Xpandomers, XNTP polymerization reactions were conducted using four longer templates, consisting of 88, 127, 227, and 277 nucleotides in length. A variant of DPO4 DNA polymerase, referred to as C4552 (SEQ ID NO:1), was used in these polymerization reactions and reaction conditions were optimized for C4552 activity in the presence of PEM compound 1. Other suitable DPO4 polymerase variants include, but are not limited to, those of SEQ ID NO:s 2-5. In addition to 1 Mm compound 1, reaction additives included […] and 2.75 μg single-strand binding protein (Eco SSB). Extension reactions were carried out with 0.85 pmol template, 0.5 pmol oligonucleotide primer, and 1 nmol each XNTP in a final volume of 10 μL. Reactions were run in buffer composed of 50 Mm TrisCl, Ph 8.84, 200 Mm NH4Oac, and 20% PEG8K supplemented with 5% NMS, polyphosphate PP-60.20 in amounts of 3 or 4 nmol, and 2 Mm MnCl2. 1.2 μg purified recombinant DNA polymerase protein was used in each extension reaction and reactions were run for 1-2 hr at 23° C. […] Lanes 1-5 and 6-10 represent identical extension reactions with the exception of the amount of PP-60.20 additive, which was 3 nmol in lanes 1-5 and 4 nmol in lanes 6-10.

C4552 DNA polymerase = target: T2, C4552 DNA polymerase (Saccharolobus solfataricus, UniProt Q97W02, A155G/A42V/D156R/D292Y/D294N/E291S/E324K/E325K/E327K/E79L/G187P/G299W/I153V/I189F/I248T/I295S/K152A/K317Q/K321Q/K56Y/K78D/L293W/M76W/N188Y/P184Q/Q82W/Q83G/R300S/S297Y/S86E/T290K/T301W/V289W/V296Q); experiment: Primer extension assay with three 100mer templates derived from the HIV1, 2 and 3 genomes; assay type: biochemical, Sulfolobus solfataricus; conditions: 0.5 Mm PEM; HIV1, HIV2, HIV3 100mer templates; 30 minutes at 23° C.; FIG. 9
T2 construct: made in house
Procedure: PEM activity of compounds 9-11 was tested in primer extension assays using three 100mer templates, derived from the HIV1, 2, and 3 genomes. Primer extension reactions included the following reagents: 75 Mm TrisCl, Ph 8.44, 175 Mm NH4Oac, 20% PEG8K, 5% NMS, 0.8 nmol PP-60.20, 0.6 Mm MnCl2, 2.3 μg Tth single-strand binding protein (SSB), 0.5 M or 1 M urea, 200 pmol each XNTP, 1.1 pmol template, 1 pmol oligonucleotide primer, 1.2 μg purified recombinant C4552 DNA polymerase, and 0.5 Mm PEM. 10 μL primer extension reactions were run for 30 minutes at 23° C. and reaction products were analyzed by gel electrophoresis.

[4] = target: T3, C4760 DNA polymerase (a variant of DPO4, SEQ ID NO:2) (Saccharolobus solfataricus, UniProt Q97W02, A155G/A42V/D156R/D292Y/D294N/E291S/E324K/E325K/E327K/E63R/E79L/G187P/G299W/I153V/I189F/I248T/I295S/K152A/K317Q/K321Q/K56Y/K78D/L293W/M76W/N188Y/P184Q/Q82W/Q83G/R300S/S297Y/S86E/T290K/T301W/V289W/V296Q); experiment: Primer extension assay with a 411mer amplicon template; assay type: biochemical, Sulfolobus solfataricus
T3 construct: made in house
T3 sequence (Q97W02 other isoform, or with tags, fused parts or gaps with the stated changes): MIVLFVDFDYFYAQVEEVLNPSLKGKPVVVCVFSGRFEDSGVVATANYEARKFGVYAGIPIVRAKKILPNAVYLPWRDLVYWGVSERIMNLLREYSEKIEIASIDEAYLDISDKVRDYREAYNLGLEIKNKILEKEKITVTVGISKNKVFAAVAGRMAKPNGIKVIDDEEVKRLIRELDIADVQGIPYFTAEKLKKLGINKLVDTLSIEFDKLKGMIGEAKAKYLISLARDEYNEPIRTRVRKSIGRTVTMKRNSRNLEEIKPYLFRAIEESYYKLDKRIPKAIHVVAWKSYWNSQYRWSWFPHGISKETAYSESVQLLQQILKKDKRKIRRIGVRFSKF
Procedure: PEM activity of compound 15 was tested in primer extension assays using a 411mer amplicon template. Primer extension reactions included the following reagents: 50 Mm TrisCl, 200 Mm NH4Oac, 20% PEG8K, 5% NMS, 3 nmol PP-60.20, 2 Mm MnCl2, 2 μg Kod single-strand binding protein (SSB), 1 M urea, 250 pmol each XNTP, 1 pmol template, 1 pmol oligonucleotide primer, 1.2 μg purified recombinant C4760 DNA polymerase (a variant of DPO4, see SEQ ID NO:2), and 2 (lane 2) or 3 (lane 3) Mm PEM. 10 μL primer extension reactions were run for 20 minutes at 37° C. and reaction products were analyzed by gel electrophoresis. A representative gel showing primer extension products is presented in FIG. 12 (the position of a 277mer is indicated by the arrow). […] Remarkably, the polymerase is completely dependent upon the addition of PEM to the reaction in order to be capable of synthesizing these lengthy Xpandomer products. Even longer extension products may be obtained by optimizing various reaction parameters, e.g., extension time and/or concentrations of various additives.
PEM activity of compound 19, was tested in primer extension assays using the 411mer amplicon template. […] 10 μL primer extension reactions were run for 30 minutes at 37° C. and reaction products were analyzed by gel electrophoresis. […]

O=C(O)c1ccc(-n2cc(-c3cccc(-c4cn(-c5ccc(C(=O)O)c(O)c5)nn4)n3)nn2)cc1O [Compound 1, 4,4′-(pyridine-2,6-diylbis(1H-1,2,3-triazole-4,1-diyl))bis(2-hydroxybenzoic acid)]
DNA polymerase-mediated primer extension with XNTPs (length of extension products) (DNA polymerase [1]): considerably longer extension products | accuracy of SBX sequence reads (DNA polymerase [2]; 45mer template, FIG. 6B, without additive reads not accurate past around base 18): increased the accuracy of the sequence reads across the entire length of the 45mer template | accuracy of SBX sequence reads (DNA polymerase [2]; 60mer and 80mer templates, FIGS. 7A and 7B): enabled accurate sequence reads completely to the end of each of these longer templates | polymerization of XNTPs into Xpandomer copies of long templates [3]: complete Xpandomer copies of each longer template | polymerization of XNTPs into full length Xpandomer copies (PEM activity) (C4552 DNA polymerase): enables polymerization of XNTPs into full length Xpandomer copies of the three different 100mer templates

CCOC(=O)c1cc(-c2cn(-c3ccc(O)c(C(=O)O)c3)nn2)nc(-c2cn(-c3ccc(O)c(C(=O)O)c3)nn2)c1 [Compound 15, 5,5′-((4-(ethoxycarbonyl)pyridine-2,6-diyl)bis(1H-1,2,3-triazole-4,1-diyl))bis(2-hydroxybenzoic acid)]
polymerization of XNTPs into lengthy Xpandomer copies (PEM activity) ([4]; 2 or 3 Mm PEM, 20 minutes at 37° C., FIG. 12): enables polymerization of XNTPs into lengthy Xpandomer copies of the 411mer template in a manner comparable to that of compound 14

NC(=O)c1cc(-c2cn(-c3ccc(C(=O)O)c(O)c3)nn2)nc(-c2cn(-c3ccc(C(=O)O)c(O)c3)nn2)c1 [Compound 19, 4,4′-((4-carbamoylpyridine-2,6-diyl)bis(1H-1,2,3-triazole-4,1-diyl))bis(2-hydroxybenzoic acid)]
polymerization of XNTPs into lengthy Xpandomer copies (PEM activity) ([4]; 0.5, 1, or 1.5 Mm PEM, 30 minutes at 37° C., FIG. 14): enables polymerization of XNTPs into lengthy Xpandomer copies of the 411mer template, albeit in a manner less efficient than that of compound 14
